Assay results from patent US8790640B1, “Treating inflammation with a binding system” (LiveLeaf, Inc., priority 2011, dated 2014).

Assay: Hydrogen peroxide retention of extracts after desiccation and rehydration (colorimetric strips)
Format: physicochemical
Settings: dissolved in 35% hydrogen peroxide, heated at 80° C., rehydrated
Experimental: In order to compare the samples provided above, a test series was prepared in 30 ml tubes containing from 1 g˜10 g of the above extracts of Chinese Gall, Green Tea, Pomegranate and Resveratrol. Each was dissolved in 20 ml of 35% hydrogen peroxide then separate to two aliquots. One part was heated at 80° C. to a dark viscous semi-liquid and allowed to desiccate to a final volume of 5 ml. Each was rehydrated and serially diluted to detection range.

In the case of `Oc1ccc(C=Cc2cc(O)cc(O)c2)cc1` [resveratrol, Resveratrol], the peroxide retention capability is reported as “relatively less ability to form stable perhydrates”.
